Literature values, collected in patent US20090318295A1, “Solid herbicidal formulation of N-(phosphono-methyl)glycine and process for its preparation” (priority 2002, published 2009).
Converted amounts (≈) assume the structure as drawn.

In the case of `O=C(O)CNCP(=O)(O)O` [Glyphosate, N-(phosphonomethyl)glycine], the solubility in water is listed as 12 mg/mL (≈ 71 mM).
